Where a SMILES comes first, the peptide text is derived from it. [ ]: non-standard residue; d: D form.
What was measured:
[1] = test system: Enterococcus faecium #2-1; assay: Biofilm inhibition (at least 80%), E. faecium; type: cell-based; conditions: E. faecium #2-1; n = 3; TSB + 1% glucose; 48 hours; crystal violet
[2] = test system: MRSA USA300; assay: Biofilm inhibition (at least 80%), MRSA; type: cell-based, methicillin resistant Staphylococcus aureus; conditions: n = 4, 10% TSB + 0.1% glucose, 18-24 hours, crystal violet
[3] = test system: Klebsiella pneumonia KPLN649; assay: Biofilm inhibition (at least 80%), K. pneumonia; type: cell-based; conditions: K. pneumoniae KPLN649; n = 3; BM2 minimal media; 48 hours; crystal violet
[4] = test system: Acinetobacter baumannii Ab5075; assay: Biofilm inhibition (at least 80%), A. baumannii; type: cell-based; conditions: n = 4, BM2 minimal media, 18-24 hours, crystal violet
[5] = test system: P. aeruginosa PAO1; assay: Biofilm inhibition (at least 80%), P. aeruginosa; type: cell-based, Pseudomonas aeruginosa; conditions: n = 4, BM2 minimal media, 18-24 hours, crystal violet
[6] = test system: Enterobacter cloacae 218R1; assay: Biofilm inhibition (at least 80%), E. cloacae; type: cell-based; conditions: E. cloacae 218R1; n = 3; BM2 minimal media; 18-24 hours; crystal violet
[7] = test system: E. coli O157:H7; assay: Biofilm inhibition (at least 80%), E. coli; type: cell-based, Escherichia coli; conditions: n = 3, BM2 minimal media, 18-24 hours, crystal violet
[8] = test system: red blood cells; assay: Hemolysis; type: cell-based, human; conditions: 4 hours
Description: Hemolysis: Peptide induced hemolysis was evaluated according to methods described previously [Hilchie, A. L., et al. (2016). Mastoparan is a membranolytic anti-cancer peptide that works synergistically with gemcitabine in a mouse model of mammary carcinoma. Biochimica Et Biophysica Acta, 1858(12), 3195-3204]. Briefly, red blood cells were obtained, with human ethics approval, from the blood of healthy volunteers collected in a sodium heparin tube and then rinsed three times in PBS, centrifuging between washes, to obtain the hematocrit (100% RBC). A 2.5% RBCs suspension was exposed to peptide at varying concentrations and incubated at 37 C in a 5% CO2 humidified atmosphere for 4 hours. Supernatants were collected following centrifugation (1100 rpm) and transferred to a flat bottom microtitre plate. The absorbance (490 nm) of each supernatant was measured on a BioTek Epoch Microplate Spectrophotometer. Percent hemolysis was calculated by comparing the absorbance arising from peptide treated cells to RBCs treated with […] (0% hemolysis) or lysed with 1% Triton X-100 (100% hemolysis).

[9] = test system: 3-day-old oral plaque (multispecies) biofilms; assay: Oral plaque biofilm model, long-term (1-3 days) exposure, dead cell volume; type: cell-based; conditions: 10 μg/mL, 1 or 3 days (FIG. 10)
[10] = test system: 3-day-old oral plaque biofilms; assay: Oral plaque biofilm model, brief (1 minute) exposure, dead cell volume; type: cell-based; conditions: 10 μg/mL, 1 minute (FIG. 11)
[11] = test system: ESKAPEE Pathogens
[12] = test system: peripheral blood mononuclear cells (PBMCs); assay: Cytotoxicity (LDH release), PBMCs

## CC[C@@H](C)[C@@H](NC(=O)[C@@H](C)NC(=O)[C@@H](CCCNC(=N)N)NC(=O)[C@@H](Cc1c[nH]c2ccccc12)NC(=O)[C@@H](CCC(N)=O)NC(=O)[C@H](N)C(C)C)C(=O)N[C@H](CCCNC(=N)N)C(=O)N[C@@H](C(=O)N[C@@H](C(=O)N[C@@H](C(=O)N[C@@H](C(=O)N[C@H](CCCNC(=N)N)C(N)=O)[C@H](C)CC)C(C)C)[C@H](C)CC)C(C)C [AB107-D, vqwrairvivir-NH2] (H-[dV][dQ][dW][dR][dA][dI][dR][dV][dI][dV][dI][dR]-NH2)
[1]
  Peptide/Antibiotic Concentration where at least 80% of biofilm growth was inhibited: 1 µg/mL
[2]
  Peptide/Antibiotic Concentration where at least 80% of biofilm growth was inhibited: 1 µg/mL
[3]
  Peptide/Antibiotic Concentration where at least 80% of biofilm growth was inhibited: 4 µg/mL
[4]
  Peptide/Antibiotic Concentration where at least 80% of biofilm growth was inhibited: 1 µg/mL
[5]
  Peptide/Antibiotic Concentration where at least 80% of biofilm growth was inhibited: 4 µg/mL
[6]
  Peptide/Antibiotic Concentration where at least 80% of biofilm growth was inhibited: 1 µg/mL
[7]
  Peptide/Antibiotic Concentration where at least 80% of biofilm growth was inhibited: 1 µg/mL
[8]
  Hemolysis: non-toxic at all concentrations evaluated
[9]
  Killing of oral plaque biofilms, long-term exposure: significantly enhanced killing of the oral plaque biofilms
[10]
  Killing of oral plaque biofilms, brief exposure: comparable to or better than peptide DJK-5
[11]
  Broad spectrum antibiofilm activity, more active than DJK5: 2-4 fold
[12]
  Cytotoxicity (LDH): non-toxic at all concentrations evaluated
